Reference: patent US9637490B2, “Antifungal 5,6-dihydro-4-[(difluoroethyl)phenyl]-4H-pyrrolo[1,2-α][1,4]benzodiazepine and 4-(difluoroethyl)phenyl-6H-pyrrolo[1,2-α][1,4]benzodiazepine derivatives” (Janssen Pharmaceutica NV, priority 2010, dated 2017)

Tests used:
[1] = tested on: Microsporum canis (strain B68128); assay: Analogous protocol: comparison compounds (G10, G11) against M. canis in guinea pigs after oral treatment; format: in vivo; parameters: key to semi-quantitative lesion score (mean): lesion score 0–3.5 by severity and size of lesion; conditions: oral 50 mg/kg once daily for 7 days
Experimental: (§1) The animals used in the tests described below were female Guinea pigs (Duncan-Hartley, Charles River, 200 g). These animals were kept in groups of 2 or 3 in cages of 56×33×20 cm^3. Food pellets (Carfil Quality) and water were available ad libitum in addition to a small daily amount of hay. Standard husbandry conditions were adopted: room temperature: 22° C., humidity level: 60% and a day-night cycle of 12 h.
(§2) For the preparation of inoculums, Microsporum canis (strain B68128) was grown on Sabouraud Dextrose Agar (SDA) plates for at least one week (7-10 days) before infection (27° C.). On the day of infection, spores were harvested by adding 4-5 ml sterile water on the plate and suspending the infectious material with a bend Pasteur pipette. From the recollected fluid, 10 μl was added to a KOVA counting chamber for determination of the number of spores in 1 square (average of several squares). If needed, additional dilutions (10× or 100×) were prepared. The average number of spores in one square×dilution×90.000=cfu/ml. An inoculum of 1×10^7 cfu/ml was prepared in a honey-water mixture (50%-50%).
(§3) In the tests described below, semi-quantitative lesion scores were given based on different clinical parameters. Scores between 0 and 3.5 were assigned based on the severity and size of the lesion. The criteria are listed in detail in Table 6.
For the sake of comparison, 2 compounds not having the 1,1-difluoroethyl moiety in the R^5 or R^6 position, were tested in an analogous protocol:
(§4) The dorsum of the guinea pigs was shaved and further depilated for 7 minutes with Veet® creme before scarification with a steel brush. An inoculum of 10^6 cfu in 200 μl (100 μl mQ+100 μl honey) was applied to the wound using a micropipette with disposable tips. The animal was kept immobilized until the inoculum had completely dried.
Vehicle: methocel F4M Premium EP, Tween 80® (polysorbate 80), demineralised water.
Test compounds: prepared at 30 mg/ml, subsequently further diluted until 6 mg/ml.
Oral treatment (gavage 0.40 ml/guinea pig once daily) was started about 2 hours before infection and continued once daily for 7 consecutive days.
Developments of lesions were evaluated following the semi-quantitative lesion scoring system (see Table 6) on days 3, 5, 7, 10, 12, 14, 18 and 21. Reported values in Table 8 are mean values.

[2] = tested on: Sporothrix schenkii B62482; assay: Antifungal activity in vitro (resazurin susceptibility screen), Inf. A; format: cell-based; conditions: Sporothrix, B62482, Sporothrix schenkii B62482; 27 °C, 4 days, resa time 24 hours
Outline: (§5)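 Compound dilutions spotted on plates, highest in-test concentration 64 μM. Inoculum of 10^3 cfu/well in RPMI-MOPS pH 7.0 added, then incubated by species (yeasts 24 h at 37° C; dermatophytes one week or more at 27° C). Resazurin added for a further period before fluorescence reading.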

Microsporum canis B68128 = assay: Antifungal activity in vitro (resazurin susceptibility screen), Inf. B; format: cell-based; conditions: Microsporum canis, B68128, Microsporum canis B68128; 27 °C, 9 days, resa time 24 hours
Outline: as §5

[3] = tested on: Candida parapsilosis B66126; assay: Antifungal activity in vitro (resazurin susceptibility screen), Inf. D; format: cell-based; conditions: Lodderomyces parapsilosis, B66126, Candida parapsilosis B66126; 37 °C, 24 hours, resa time 4 hours
Outline: as §5

Rhizopus oryzae IHEM5223 = assay: Antifungal activity in vitro (resazurin susceptibility screen), Inf. J; format: cell-based; conditions: Rhizopus arrhizus, 37 °C, 24 hours, resa time 6 hours
Outline: as §5

[4] = tested on: Mucor circinelloides IHEM21105; assay: Antifungal activity in vitro (resazurin susceptibility screen), Inf. L; format: cell-based; conditions: 27 °C, 48 hours, resa time 17 hours
Outline: as §5

[5] = tested on: Microsporum canis (strain B68128); assay: Test D.4.1: activity against M. canis in guinea-pigs after oral treatment for 7 consecutive days; format: in vivo; parameters: key to semi-quantitative lesion score (mean): lesion score 0–3.5 by severity and size of lesion
Experimental: as §1, §2, §3
as §4, with “3” for “7”, “150” for “200”, “(75 mQ+75” for “(100 μl mQ+100”, “dried. […]” for “dried.”
vehicle: methocel 0.5%, Tween 80® (polysorbate 80), demineralised water reference compound: itraconazole at 6.25 mg/ml test compounds: prepared at 25 mg/ml, subsequently further diluted
Oral treatment (gavage 0.16 ml/100 g once daily) was started about 2 hours before infection and continued once daily for 7 consecutive days. The animals were weighed after 3 days of treatment to adjust for the dose.
Developments of lesions were evaluated following the semi-quantitative lesion scoring system (see Table 6) on days 3, 5, 7, 10, 12, 14, 17 and 20. The results are show in Table 7 (“DPI” means days post infection). Reported values in Table 7 are mean values.

[6] = tested on: Scedosporium prolificans IHEM21157; assay: Antifungal activity in vitro (resazurin susceptibility screen), Inf. I; format: cell-based; conditions: Lomentospora prolificans, 37 °C, 48 hours, resa time 17 hours
Outline: as §5

[7] = tested on: Trichophyton mentagrophytes B70554; assay: Antifungal activity in vitro (resazurin susceptibility screen), Inf. G; format: cell-based; conditions: Trichophyton mentagrophytes, B70554, Trichophyton mentagrophytes B70554; 27 °C, 7 days, resa time 24 hours
Outline: as §5

[8] = tested on: Trichophyton rubrum B68183; assay: Antifungal activity in vitro (resazurin susceptibility screen), Inf. C; format: cell-based; conditions: Trichophyton rubrum, B68183, Trichophyton rubrum B68183; 27 °C, 7 days, resa time 24 hours
Outline: as §5

[9] = tested on: Aspergillus fumigatus B42928; assay: Antifungal activity in vitro (resazurin susceptibility screen), Inf. E; format: cell-based; conditions: Aspergillus fumigatus, B42928, Aspergillus fumigatus B42928; 27 °C, 48 hours, resa time 17 hours
Outline: as §5

[10] = tested on: Cryptococcus neoformans B66663; assay: Antifungal activity in vitro (resazurin susceptibility screen), Inf. F; format: cell-based; conditions: Cryptococcus neoformans, B66663, Cryptococcus neoformans B66663; 37 °C, 24 hours, resa time 4 hours
Outline: as §5

[11] = tested on: Scedosporium apiospermum IHEM3817; assay: Antifungal activity in vitro (resazurin susceptibility screen), Inf. H; format: cell-based; conditions: Scedosporium apiospermum, IHEM3817, Scedosporium apiospermum IHEM3817; 37 °C, 48 hours, resa time 17 hours
Outline: as §5

[12] = tested on: Rhizomucor miehei IHEM13391; assay: Antifungal activity in vitro (resazurin susceptibility screen), Inf. K; format: cell-based; conditions: Rhizomucor miehei, IHEM13391, Rhizomucor miehei IHEM13391; 37 °C, 48 hours, resa time 17 hours
Outline: as §5

Compound: CCc1ccc(C2=NCc3c(Cl)cccc3-n3cccc32)cc1 [Compound G11]
- activity against M. canis (in words) [1]: partial activity
- activity compared with present compounds 14 and 4 (G7 and G4, both at 40 mg/kg) [1]: less active
- semi-quantitative lesion score (mean) ([1]; 3 DPI): 0
- semi-quantitative lesion score (mean) ([1]; 5 DPI): 0
- semi-quantitative lesion score (mean) ([1]; 7 DPI): 0.5
- semi-quantitative lesion score (mean) ([1]; 10 DPI): 0.5
- semi-quantitative lesion score (mean) ([1]; 12 DPI): 0.5
- semi-quantitative lesion score (mean) ([1]; 14 DPI): 1
- semi-quantitative lesion score (mean) ([1]; 18 DPI): 0.5
- semi-quantitative lesion score (mean) ([1]; 21 DPI): 0.5

Compound: CC(F)(F)c1cccc(C2=NCc3c(Cl)cccc3-n3cccc32)c1 [Compound 14, 7-chloro-4-[3-(1,1-difluoroethyl)phenyl]-6H-pyrrolo[1,2-a][1,4]benzodiazepine]
- IC50 [2]: 43.7 µM
- IC50 (Microsporum canis B68128): 0.525 µM
- IC50 [3]: 3.02 µM
- IC50 (Rhizopus oryzae IHEM5223): > 64.6 µM
- IC50 [4]: > 64.6 µM
- semi-quantitative lesion score (mean) ([5]; oral 10 mg/kg once daily for 7 days, 3 DPI): 0.33
- semi-quantitative lesion score (mean) ([5]; oral 10 mg/kg once daily for 7 days, 5 DPI): 1.17
- semi-quantitative lesion score (mean) ([5]; oral 10 mg/kg once daily for 7 days, 7 DPI): 2.00
- semi-quantitative lesion score (mean) ([5]; oral 10 mg/kg once daily for 7 days, 10 DPI): 2.17
- semi-quantitative lesion score (mean) ([5]; oral 10 mg/kg once daily for 7 days, 12 DPI): 2.33
- semi-quantitative lesion score (mean) ([5]; oral 10 mg/kg once daily for 7 days, 14 DPI): 2.17
- semi-quantitative lesion score (mean) ([5]; oral 10 mg/kg once daily for 7 days, 17 DPI): 1.67
- semi-quantitative lesion score (mean) ([5]; oral 10 mg/kg once daily for 7 days, 20 DPI): 1.17
- semi-quantitative lesion score (mean) ([5]; oral 20 mg/kg once daily for 7 days, 3 DPI): 0
- semi-quantitative lesion score (mean) ([5]; oral 20 mg/kg once daily for 7 days, 5 DPI): 0.33
- semi-quantitative lesion score (mean) ([5]; oral 20 mg/kg once daily for 7 days, 7 DPI): 0.83
- semi-quantitative lesion score (mean) ([5]; oral 20 mg/kg once daily for 7 days, 10 DPI): 1.67
- semi-quantitative lesion score (mean) ([5]; oral 20 mg/kg once daily for 7 days, 12 DPI): 2.00
- semi-quantitative lesion score (mean) ([5]; oral 20 mg/kg once daily for 7 days, 14 DPI): 1.67
- semi-quantitative lesion score (mean) ([5]; oral 20 mg/kg once daily for 7 days, 17 DPI): 1.50
- semi-quantitative lesion score (mean) ([5]; oral 20 mg/kg once daily for 7 days, 20 DPI): 0.67
- activity compared with the terbinafine group (G2, 10 mg/kg) ([5]; oral 40 mg/kg once daily for 7 days): comparable to G2
- semi-quantitative lesion score (mean) ([5]; oral 40 mg/kg once daily for 7 days, 3 DPI): 0
- semi-quantitative lesion score (mean) ([5]; oral 40 mg/kg once daily for 7 days, 5 DPI): 0.17
- semi-quantitative lesion score (mean) ([5]; oral 40 mg/kg once daily for 7 days, 7 DPI): 0.67
- semi-quantitative lesion score (mean) ([5]; oral 40 mg/kg once daily for 7 days, 10 DPI): 1.17
- semi-quantitative lesion score (mean) ([5]; oral 40 mg/kg once daily for 7 days, 12 DPI): 0.83
- semi-quantitative lesion score (mean) ([5]; oral 40 mg/kg once daily for 7 days, 14 DPI): 0.50
- semi-quantitative lesion score (mean) ([5]; oral 40 mg/kg once daily for 7 days, 17 DPI): 0.17
- semi-quantitative lesion score (mean) ([5]; oral 40 mg/kg once daily for 7 days, 20 DPI): 0.17
- IC50 [6]: 1.32 µM
- IC50 [7]: 0.603 µM
- IC50 [8]: 0.372 µM
- IC50 [9]: 2 µM
- melting point: 106.9 to 109.7 °C
- IC50 [10]: 37.2 µM
- IC50 [11]: 1.74 µM
- IC50 [12]: 45.7 µM

Compound: CCc1cccc(C2=NCc3c(Cl)cccc3-n3cccc32)c1 [Compound G10]
- activity against M. canis (in words) [1]: partial activity
- activity compared with present compounds 14 and 4 (G7 and G4, both at 40 mg/kg) [1]: less active
- semi-quantitative lesion score (mean) ([1]; 3 DPI): 0
- semi-quantitative lesion score (mean) ([1]; 5 DPI): 0.5
- semi-quantitative lesion score (mean) ([1]; 7 DPI): 1
- semi-quantitative lesion score (mean) ([1]; 10 DPI): 1
- semi-quantitative lesion score (mean) ([1]; 12 DPI): 2
- semi-quantitative lesion score (mean) ([1]; 14 DPI): 1
- semi-quantitative lesion score (mean) ([1]; 18 DPI): 1
- semi-quantitative lesion score (mean) ([1]; 21 DPI): 0.5
